Measurements from the NIST ThermoML archive (doi:10.1021/je100679s).

Legend:
[1] = 101 kPa, Liquid; for electrical conductivity: DDS-307 conductivity meter
[2] = xn = mol fraction of the nth substance listed; details: 101 kPa, Liquid, x2 = 0

CCCCCCn1cc[n+](C)c1C.O=S(=O)([N-]S(=O)(=O)C(F)(F)F)C(F)(F)F
[1]
Details | electrical conductivity [S/m] | mass density [kg/m3]
293.15 K | – | 1358.19
298.15 K | 0.108 | 1353.11
303.15 K | 0.158 | 1348.71
308.15 K | 0.213 | 1344.29
313.15 K | 0.271 | 1339.88
318.15 K | 0.319 | 1335.47
323.15 K | 0.369 | 1331.06
328.15 K | 0.426 | 1326.65
333.15 K | 0.48 | 1322.24

COC(=O)OC [dimethyl carbonate]
[1]
Details | mass density [kg/m3]
293.15 K | 1069.92
298.15 K | 1063.34
303.15 K | 1056.72
308.15 K | 1050.07
313.15 K | 1043.39
318.15 K | 1036.69
323.15 K | 1029.94
328.15 K | 1023.25
333.15 K | 1016.32

COC(=O)OC [dimethyl carbonate] + CCCCCCn1cc[n+](C)c1C.O=S(=O)([N-]S(=O)(=O)C(F)(F)F)C(F)(F)F
[2]
Details | mass density [kg/m3]
293.15 K | 1069.92
298.15 K | 1063.34
303.15 K | 1056.72
308.15 K | 1050.07
313.15 K | 1043.39
318.15 K | 1036.69
323.15 K | 1029.94
328.15 K | 1023.25
333.15 K | 1016.32
